# Assay results from patent US20130029367A1, “COMPOSITIONS AND METHODS FOR MONITORING BREAST CANCER TREATMENT” (Board of Trustees of the University of Arkansas, priority 2003, published 2013).
# How the values were obtained:
# [1] = system: human gastrointestinal epithelial cell line (CaCo); test: Cellular uptake of glutamine in CaCo cells (HPLC detection at 340 nm); assay type: in vitro ADME
# Procedure: Distilled, deionized water (107 ml) was added to 207 grams of a dry mixture of sucrose, sorbitol, and glutamine with excipients (Aesgen-14) as listed in Table 1.
# Both samples were allowed to stand for 1 day at room temperature. The supernatant was decanted from the residue and used for the cellular uptake determination.
# On Day 1, cells from a human gastrointestinal epithelial cell line (CaCo) were plated at a density of 0.5×10^6 cells per well in a 6-well tissue culture dish.
# At time points 0, 10, 20, 40, and 60 seconds, the test material was aspirated and the cells washed three times (3×) with chilled (4EC) phosphate buffered saline (PBS), followed by the addition of 1.0 ml of perchloric acid. Cells were harvested by scraping, then aspirated by pipet into a 1.7 ml tube.
# The harvested cells were sonicated for 10 seconds, and 500:1 of sonicated cells were transferred into a 1.7 ml tube. The perchloric acid was neutralized by the addition of 130:1 of 2M KHCO3, and the resulting mixture was frozen overnight at −80EC.
# Upon thawing, the sample was centrifuged for 10 minutes at 14,000 rpm and the supernatants were transferred to new 1.7 ml tubes and frozen at −80EC. The resulting clarified samples were thawed and diluted 1:3 with deionized water. Fifty microliters were withdrawn, added to 10 microliters complete o-phthaldialdehyde (Sigma P-0532), and mixed by agitation. After incubation for two minutes at room temperature, a 20:1 sample was injected on a Hypersil® C18 Elite 5:m HPLC column using 70:30 acetonitrile:water as the mobile phase. Glutamine levels, measured as :g/ml, were detected at 340 nm.
# [2] = system: radiation injury to normal breast tissue in BCT patients; test: Phase III pilot study: oral AES-14 vs placebo for radiation injury to the breast in BCT patients; assay type: in vivo, human; conditions: at 2 year follow-up
# Procedure: This theory was tested in two parts. […] A Phase III pilot study in which 17 patients were randomized to oral AES-14 (30 gm GLN/day, approximately 0.5 gm GLN/kg/day) or placebo from one week prior until one week after radiation therapy (5,000 cGy) was performed. Patients were followed weekly for 7 weeks and every 3 months for 2 years for acute and chronic radiation injury using the RTOG scales, skin biopsy at 0 and 7 weeks, GLN and GSH levels, US, mammogram density, lymphedema, quality of life and performance status.
# The RTOG acute radiation morbidity scoring criteria for skin ranges from 0 (no change) to 4 (necrosis). A score of 2 (moist desquamation) was considered failure of treatment. Patients receiving oral AES-14 scored an average of 0.9±0.2, SEM compared to 1.4±0.2 in the placebo group. All patients in the placebo group reached a score of 2 or greater during the first 7 weeks. Two of 8 placebo patients required radiation therapy delay. […] Only 4 of 9 patients in the AES-14 group scored a high of 2, none a 3 (p=0.03 AES-14 vs. placebo, Fisher Exact). At 12 months, 4 of 8 patients in the placebo group complained of pain for which 3 required narcotics, 6 of 8 had significant edema, and 4 of 8 marked increased density and firmness of the radiated breast. […]
# 9.29 kDa protein = test: SELDI-MS of serum proteins in breast cancer patients on radiation therapy and oral glutamine (AES-14); assay type: in vivo, human
# Excerpt: Sixteen breast cancer patients treated with radiation therapy were randomized to receive oral supplemental glutamine (AES-14) or a placebo. Ten of the sixteen women received AES-14 (30 g glutamine per day, approximately 0.5 g glutamine/kg/day) from one week prior to initiating radiation therapy (5,000 cGy) until one week after completing radiation therapy. Six patients received placebo. Serum was collected from each patient before beginning glutamine supplementation (Baseline), at two and four weeks after initiating glutamine supplementation, and one week after stopping glutamine supplementation (Post Treatment in FIG. 1).
# Serum proteins from each sample were analyzed by SELDI-MS. Briefly, serum proteins were adhered to the solid substrate of a SELDI chip. The proteins were then desorbed by surface enhanced laser desorption in a SELDI-MS apparatus, and analyzed by mass spectrometry.
# SELDI-MS was performed using a Ciphergen (Freemont, Calif.) SELDI PDSII instrument. […] The mass:charge ratio (m/z) of each protein was determined according to a variety of externally calibrated peptide and protein standards. […]
# The SELDI-MS procedure analyzed proteins over the m/z ratio ranges of 2-20 and 20-100 kDa.
structure (smiles),measurement,setting,value
NC(=O)CC[C@H](N)C(=O)O [L-glutamine],mean cellular glutamine uptake,"[1]; normal cells, incubation time 0 seconds",3.53 :g/ml
same,mean cellular glutamine uptake,"[1]; normal cells, incubation time 10 seconds",10.30 :g/ml
same,mean cellular glutamine uptake,"[1]; normal cells, incubation time 20 seconds",2.48 :g/ml
same,mean cellular glutamine uptake,"[1]; normal cells, incubation time 40 seconds",3.23 :g/ml
same,mean cellular glutamine uptake,"[1]; normal cells, incubation time 60 seconds",4.85 :g/ml
same,mean cellular glutamine uptake,"[1]; starved cells (L-glutamine deficient medium), incubation time 0 seconds",1.33 :g/ml
same,mean cellular glutamine uptake,"[1]; starved cells (L-glutamine deficient medium), incubation time 10 seconds",1.43 :g/ml
same,mean cellular glutamine uptake,"[1]; starved cells (L-glutamine deficient medium), incubation time 20 seconds",1.49 :g/ml
same,mean cellular glutamine uptake,"[1]; starved cells (L-glutamine deficient medium), incubation time 40 seconds",2.23 :g/ml
same,mean cellular glutamine uptake,"[1]; starved cells (L-glutamine deficient medium), incubation time 60 seconds",49.96 :g/ml
same,patients with local recurrence,[2],none
same,increase in amount of the 9.29 kDa protein,9.29 kDa protein; first two weeks of glutamine supplementation and radiation therapy,approximately 3 fold
same,amount of the 9.29 kDa protein after discontinuation,9.29 kDa protein; within one week following discontinuation of glutamine,returned to near the baseline value
